“Also recorded” adds a separate entry of the source. Where a SMILES comes first, the peptide text is derived from it. [ ]: non-standard residue; d: D form.
Key:
[1] = test system: control cells; assay: LDH release from control cells; assay type: cell-based, human; settings: 40 μg/ml for 18 hours
Method: (§1) Cell fixation was performed by a 10 minute treatment with 3% paraformaldehyde in phosphate buffered saline (PBS), followed by three washes with blank media. Lactate dehydrogenase (LDH) release from cells into the media was measured enzymatically (Roche Diagnostics, Indianapolis, Ind.) and expressed, after subtraction of LDH released into blank media, as the percentage of total cell LDH. Total cell LDH was determined after cell solubilization with 1% Triton X-100.
(§2) Incubation of the cells with L-37pA and D-37pA at the maximum concentration and time used for the efflux studies (40 μg/ml for 18 hours) did, however, consistently result in the release of a small amount of LDH from both cell lines (control cells: L-37pA (6.1%±0.2), D-37pA (6.6%±0.1); ABCA1 cells: L-37pA (4.3%±0.04), D-37pA (5.7%±0.1)).

[2] = test system: ABCA1 cells; assay: LDH release from ABCA1 cells; assay type: cell-based, human; settings: 40 μg/ml for 18 hours
Method: as §1, §2

[3] = test system: HeLa cells stably transfected with human ABCA1 cDNA (ABCA1 cells); assay: Cholesterol and phospholipid efflux from ABCA1 transfected cells; assay type: cell-based
Method: (§3) Percentage efflux was calculated after subtracting the radioactive counts in the blank media (αMEM plus 1 mg/ml of BSA), and expressed as the percent of total radioactive counts removed from the cells during the efflux period.
as §1

[4] = test system: ABCA1 cells; assay: Two-step competitive binding of radiolabled L-37pA to ABCA1 cells; parameters: species or system human; settings: 8 μM, the maximum concentration tested; 4° C.
Method: FIGS. 7A-7B are a pair of graphs illustrating the competitive binding of L-37pA peptide to ABCA1 transfected cells and control cells. ABCA1 cells (FIG. 7A) and control cells (FIG. 7B) were incubated for 3 hours at 4° C. with the indicated concentration of the competitor proteins [L-37pA (triangle), D-37pA (open square), apoA-I (closed circle), L2D-37pA (star), and L3D-37pA (open circle)] and were then washed and incubated for 1 hour at 4° C. with 1 μg/ml of radiolabled L-37pA peptide. Results are expressed as the mean of triplicates±1 SD.
The L-37pA peptide was labeled with ^125I using iodine monochloride. Confluent cells grown on 12-well plates were incubated for 3 hours at 4° C. with the indicated concentration of the unlabeled competitor peptide in αMEM media plus 10 mg/ml of BSA (FIG. 7). […] Cells were washed three times, and cell bound counts were determined after solubilization with 0.1 N NaOH.
A two-step sequential competitive binding assay was performed in order to prevent any potentially interfering interaction of the radiolabled peptide with the competitor proteins (Mendez et al., J. Clin. Invest. 94:1698-1705, 1994). The cells were first incubated with the competitor proteins for 3 hours, washed, and then the cell binding of the radiolabled L-37 peptide was measured. […]

[5] = test system: HeLa cells transfected with only a hygromycin-resistant control plasmid (control cells); assay: Cholesterol and phospholipid efflux from control cells; assay type: cell-based, human; settings: for cholesterol and phospholipid efflux from control cells (in words): 18 hours
Method: as §3, §1

[6] = test system: Tangier disease fibroblast cell line with a truncated non-functional ABCA1 transporter; assay: Cholesterol efflux from Tangier disease fibroblasts; assay type: cell-based, human; settings: 10 μg/ml, 18 hour
Method: (§4) FIG. 5 is a graph illustrating ABCA1-independent efflux of cholesterol from Tangier disease fibroblasts. Normal skin fibroblasts (open bars) and Tangier disease skin fibroblasts (solid bars) were examined for their ability to efflux cholesterol over an 18 hour period when treated with 10 μg/ml apoA-I (A), 10 μg/ml L-37pA (L), and 10 μg/ml D-37pA (D). Results are expressed as the mean of triplicates±1 SD.
(§5) In order to confirm that the residual lipid efflux from the control cells to L-37pA and D-37pA (see FIG. 1) was not due to a low level of endogenous ABCA1, a Tangier disease fibroblast cell line with a truncated non-functional ABCA1 transporter (Remaley et al., Proc. Natl. Acad. Sci. USA 96:12685-12690, 1999) was evaluated for lipid efflux (FIG. 5). […] Thromb. Vasc. Biol. 17:1813-1821, 1997.

[7] = test system: ABCA1 cells and control cells; assay: Cell morphology by light microscopy during efflux experiments; assay type: cell-based, human
[8] = test system: Normal skin fibroblasts; assay: Cholesterol efflux from normal skin fibroblasts; assay type: cell-based, human; settings: 10 μg/ml, 18 hour
Method: as §4, §5

Row | Molecule | LDH release from control cells (percentage of total cell LDH) [1] | LDH release from ABCA1 cells (percentage of total cell LDH) [2] | time at which cholesterol efflux from ABCA1 cells was first detectable ([3]; 10 μg/ml) [h] | effect of fixation of ABCA1 cells on cholesterol efflux (in words) ([3]; 10 μg/ml, 18 hours, fixation with 3% paraformaldehyde) | cholesterol and phospholipid efflux from ABCA1 cells (in words) ([3]; 18 hours) | protein concentration at which lipid efflux began to show saturation ([3]; 18 hours) [µg/mL] | molar concentration at which lipid efflux began to show saturation ([3]; corresponds to 10 μg/ml) [µM] | binding of labeled L-37pA to ABCA1 cells blocked by competitor [4] | cholesterol efflux time course from control cells (in words) ([5]; 10 μg/ml, 30 hour efflux period) | cholesterol and phospholipid efflux from control cells (in words) [5] | cholesterol and phospholipid efflux from control cells (in words) ([5]; listed as apoA-1) | cholesterol efflux from Tangier disease fibroblasts [6] | effect on cell morphology [7] | cholesterol efflux from normal fibroblasts [8]
1 | CC(C)C[C@H](NC(=O)[C@H](Cc1c[nH]c2ccccc12)NC(=O)[C@H](CC(=O)O)NC(=O)[C@@H]1CCCN1C(=O)[C@H](Cc1ccccc1)NC(=O)[C@H](C)NC(=O)[C@H](CCC(=O)O)NC(=O)[C@H](CCCCN)NC(=O)[C@H](CC(C)C)NC(=O)[C@H](CCCCN)NC(=O)[C@H](CCC(=O)O)NC(=O)[C@H](C)NC(=O)[C@@H](NC(=O)[C@H](CCCCN)NC(=O)[C@H](CC(=O)O)NC(=O)[C@H](Cc1ccc(O)cc1)NC(=O)[C@H](Cc1ccccc1)NC(=O)[C@H](C)NC(=O)[C@H](CCCCN)NC(=O)[C@H](CC(C)C)NC(=O)[C@H](Cc1c[nH]c2ccccc12)NC(=O)[C@@H](N)CC(=O)O)C(C)C)C(=O)N[C@@H](CCCCN)C(=O)N[C@@H](C)C(=O)N[C@@H](Cc1ccccc1)C(=O)N[C@@H](Cc1ccc(O)cc1)C(=O)N[C@@H](CC(=O)O)C(=O)N[C@@H](CCCCN)C(=O)N[C@H](C(=O)N[C@@H](C)C(=O)N[C@@H](CCC(=O)O)C(=O)N[C@@H](CCCCN)C(=O)N[C@@H](CC(C)C)C(=O)N[C@@H](CCCCN)C(=O)N[C@@H](CCC(=O)O)C(=O)N[C@@H](C)C(=O)N[C@@H](Cc1ccccc1)C(=O)O)C(C)C [L-37pA] (H-DWLKAFYDKVAEKLKEAFPDWLKAFYDKVAEKLKEAF-OH; N-terminus and C-terminus assumed) | 6.1%±0.2 | 4.3%±0.04 | – | – | – | – | – | – | – | – | – | – | – | –
2 | apolipoprotein A-I [apoA-I] | – | – | 2 | completely blocked | do so after transfection with ABCA1 | ~10 | 0.36 | approximately 30% | no significant increase above background | do not efflux significant amounts of cholesterol and phospholipid; also recorded: unable | did not cause lipid efflux from control cells | did not efflux significant amounts of cholesterol | no morphologic effect was observed | effluxed cholesterol
3 | CC(C)C[C@@H](NC(=O)[C@@H](Cc1c[nH]c2ccccc12)NC(=O)[C@H](N)CC(=O)O)C(=O)N[C@H](CCCCN)C(=O)N[C@H](C)C(=O)N[C@H](Cc1ccccc1)C(=O)N[C@H](Cc1ccc(O)cc1)C(=O)N[C@H](CC(=O)O)C(=O)N[C@H](CCCCN)C(=O)N[C@@H](C(=O)N[C@H](C)C(=O)N[C@H](CCC(=O)O)C(=O)N[C@H](CCCCN)C(=O)N[C@H](CC(C)C)C(=O)N[C@H](CCCCN)C(=O)N[C@H](CCC(=O)O)C(=O)N[C@H](C)C(=O)N[C@H](Cc1ccccc1)C(=O)N1CCC[C@@H]1C(=O)N[C@H](CC(=O)O)C(=O)N[C@H](Cc1c[nH]c2ccccc12)C(=O)N[C@H](CC(C)C)C(=O)N[C@H](CCCCN)C(=O)N[C@H](C)C(=O)N[C@H](Cc1ccccc1)C(=O)N[C@H](Cc1ccc(O)cc1)C(=O)N[C@H](CC(=O)O)C(=O)N[C@H](CCCCN)C(=O)N[C@@H](C(=O)N[C@H](C)C(=O)N[C@H](CCC(=O)O)C(=O)N[C@H](CCCCN)C(=O)N[C@H](CC(C)C)C(=O)N[C@H](CCCCN)C(=O)N[C@H](CCC(=O)O)C(=O)N[C@H](C)C(=O)N[C@H](Cc1ccccc1)C(=O)O)C(C)C)C(C)C [D-37pA] (H-[dD][dW][dL][dK][dA][dF][dY][dD][dK][dV][dA][dE][dK][dL][dK][dE][dA][dF][dP][dD][dW][dL][dK][dA][dF][dY][dD][dK][dV][dA][dE][dK][dL][dK][dE][dA][dF]-OH; N-terminus and C-terminus assumed) | 6.6%±0.1 | 5.7%±0.1 | – | – | – | – | – | – | – | – | – | – | – | –

From US8835378B2, “Multi-domain amphipathic helical peptides and methods of their use” (The United States of America as represented by the …, priority 2004, dated 2014)
